The supplement of paper PMC10307832

Key:
Test in all cases: relative viability (nuclei count vs DMSO), 5 days (fraction); higher = more cells survive
HCC-78 = tested on: HCC-78
In short: (§1)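 Lung cancer cell lines were pin-tool dosed in 1536-well plates on the day after seeding, with either a lone drug or a fixed anchor-drug dose plus five library-drug doses (not always all listed) in √10 steps. Nuclei were counted on 4× images after 5 days. Relative viability is the ratio of treated-well to vehicle-well nuclei counts, with each value a median of duplicate plates.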

HCC-827 = tested on: HCC-827
In short: as §1

NCI-H1650 = tested on: NCI-H1650
In short: as §1

LK-2 = tested on: LK-2
In short: as §1

NCI-H2087 = tested on: NCI-H2087
In short: as §1

EKVX = tested on: EKVX
In short: as §1

NCI-H1792 = tested on: NCI-H1792
In short: as §1

NCI-H727 = tested on: NCI-H727
In short: as §1

COR-L 105 = tested on: COR-L 105
In short: as §1

NCI-H1734 = tested on: NCI-H1734
In short: as §1

EMC-BAC-2 = tested on: EMC-BAC-2
In short: as §1

EPLC-272H = tested on: EPLC-272H
In short: as §1

SK-MES-1 = tested on: SK-MES-1
In short: as §1

NCI-H2126 = tested on: NCI-H2126
In short: as §1

LOU-NH91 = tested on: LOU-NH91
In short: as §1

ChaGo-K-1 = tested on: ChaGo-K-1
In short: as §1

RERF-LC-KJ = tested on: RERF-LC-KJ
In short: as §1

SW 1573 = tested on: SW 1573
In short: as §1

LU99A = tested on: LU99A
In short: as §1

NCI-H1944 = tested on: NCI-H1944
In short: as §1

BEN = tested on: BEN
In short: as §1

LCLC-97TM1 = tested on: LCLC-97TM1
In short: as §1

O=c1[nH]c2ccccc2n1C1CCN(CCCC(c2ccc(F)cc2)c2ccc(F)cc2)CC1 [Pimozide] + CC1(C)CCC(c2ccc(Cl)cc2)=C(CN2CCN(c3ccc(C(=O)NS(=O)(=O)c4ccc(N[C@H](CCN5CCOCC5)CSc5ccccc5)c(S(=O)(=O)C(F)(F)F)c4)cc3)CC2)C1 [Navitoclax] (partner 0.5 µM)
relative viability (HCC-78; first compound 0.08 µM): 0.764
relative viability (HCC-78; first compound 0.253 µM): 0.717
relative viability (HCC-78; first compound 0.8 µM): 0.893
relative viability (HCC-78; first compound 2.53 µM): 0.71
relative viability (HCC-78; first compound 8 µM): 0.691
relative viability (HCC-827; first compound 0.253 µM): 1.03
relative viability (HCC-827; first compound 0.8 µM): 0.897
relative viability (HCC-827; first compound 2.53 µM): 0.999
relative viability (HCC-827; first compound 8 µM): 0.981
relative viability (NCI-H1650; first compound 0.08 µM): 0.979
relative viability (NCI-H1650; first compound 0.253 µM): 1.17
relative viability (NCI-H1650; first compound 0.8 µM): 1.02
relative viability (NCI-H1650; first compound 2.53 µM): 1.21
relative viability (NCI-H1650; first compound 8 µM): 0.761
relative viability (LK-2; first compound 0.08 µM): 0.818
relative viability (LK-2; first compound 0.253 µM): 0.724
relative viability (LK-2; first compound 0.8 µM): 0.811
relative viability (LK-2; first compound 2.53 µM): 0.721
relative viability (LK-2; first compound 8 µM): 1.05
relative viability (NCI-H2087; first compound 0.08 µM): 0.972
relative viability (NCI-H2087; first compound 0.253 µM): 0.98
relative viability (NCI-H2087; first compound 0.8 µM): 0.878
relative viability (NCI-H2087; first compound 2.53 µM): 0.997
relative viability (NCI-H2087; first compound 8 µM): 0.931
relative viability (EKVX; first compound 0.253 µM): 0.936
relative viability (EKVX; first compound 0.8 µM): 0.881
relative viability (EKVX; first compound 2.53 µM): 0.89
relative viability (EKVX; first compound 8 µM): 0.946
relative viability (NCI-H1792; first compound 0.08 µM): 0.647
relative viability (NCI-H1792; first compound 0.253 µM): 0.629
relative viability (NCI-H1792; first compound 0.8 µM): 0.619
relative viability (NCI-H1792; first compound 2.53 µM): 0.599
relative viability (NCI-H1792; first compound 8 µM): 0.649
relative viability (NCI-H727; first compound 0.08 µM): 0.415
relative viability (NCI-H727; first compound 0.253 µM): 0.421
relative viability (NCI-H727; first compound 0.8 µM): 0.409
relative viability (NCI-H727; first compound 2.53 µM): 0.409
relative viability (NCI-H727; first compound 8 µM): 0.379
relative viability (COR-L 105; first compound 0.253 µM): 0.601
relative viability (COR-L 105; first compound 0.8 µM): 0.618
relative viability (COR-L 105; first compound 2.53 µM): 0.816
relative viability (COR-L 105; first compound 8 µM): 0.645
relative viability (NCI-H1734; first compound 0.08 µM): 0.894
relative viability (NCI-H1734; first compound 0.253 µM): 0.806
relative viability (NCI-H1734; first compound 0.8 µM): 0.764
relative viability (NCI-H1734; first compound 2.53 µM): 0.83
relative viability (NCI-H1734; first compound 8 µM): 0.836
relative viability (EMC-BAC-2; first compound 0.08 µM): 1.09
relative viability (EMC-BAC-2; first compound 0.253 µM): 1.11
relative viability (EMC-BAC-2; first compound 0.8 µM): 1.05
relative viability (EMC-BAC-2; first compound 2.53 µM): 1.06
relative viability (EMC-BAC-2; first compound 8 µM): 1.07
relative viability (EPLC-272H; first compound 0.08 µM): 0.979
relative viability (EPLC-272H; first compound 0.253 µM): 1.16
relative viability (EPLC-272H; first compound 0.8 µM): 1.13
relative viability (EPLC-272H; first compound 2.53 µM): 1.03
relative viability (EPLC-272H; first compound 8 µM): 0.967
relative viability (SK-MES-1; first compound 0.08 µM): 1.31
relative viability (SK-MES-1; first compound 0.253 µM): 1.25
relative viability (SK-MES-1; first compound 0.8 µM): 1.18
relative viability (SK-MES-1; first compound 2.53 µM): 1.21
relative viability (SK-MES-1; first compound 8 µM): 1.08
relative viability (NCI-H2126; first compound 0.08 µM): 0.835
relative viability (NCI-H2126; first compound 0.253 µM): 0.827
relative viability (NCI-H2126; first compound 0.8 µM): 0.841
relative viability (NCI-H2126; first compound 2.53 µM): 0.824
relative viability (NCI-H2126; first compound 8 µM): 0.868
relative viability (LOU-NH91; first compound 0.08 µM): 0.309
relative viability (LOU-NH91; first compound 0.253 µM): 0.734
relative viability (LOU-NH91; first compound 0.8 µM): 0.736
relative viability (LOU-NH91; first compound 2.53 µM): 0.788
relative viability (LOU-NH91; first compound 8 µM): 0.739
relative viability (ChaGo-K-1; first compound 0.08 µM): 0.861
relative viability (ChaGo-K-1; first compound 0.253 µM): 0.935
relative viability (ChaGo-K-1; first compound 0.8 µM): 0.974
relative viability (ChaGo-K-1; first compound 2.53 µM): 1.01
relative viability (ChaGo-K-1; first compound 8 µM): 0.941
relative viability (RERF-LC-KJ; first compound 0.08 µM): 0.913
relative viability (RERF-LC-KJ; first compound 0.253 µM): 0.855
relative viability (RERF-LC-KJ; first compound 0.8 µM): 0.885
relative viability (RERF-LC-KJ; first compound 2.53 µM): 1.04
relative viability (RERF-LC-KJ; first compound 8 µM): 0.92
relative viability (SW 1573; first compound 0.08 µM): 0.92
relative viability (SW 1573; first compound 0.253 µM): 1.04
relative viability (SW 1573; first compound 0.8 µM): 0.799
relative viability (SW 1573; first compound 2.53 µM): 1.02
relative viability (SW 1573; first compound 8 µM): 0.796
relative viability (LU99A; first compound 0.08 µM): 0.794
relative viability (LU99A; first compound 0.253 µM): 0.772
relative viability (LU99A; first compound 0.8 µM): 0.716
relative viability (LU99A; first compound 2.53 µM): 0.875
relative viability (LU99A; first compound 8 µM): 0.806
relative viability (NCI-H1944; first compound 0.08 µM): 0.945
relative viability (NCI-H1944; first compound 0.253 µM): 1.05
relative viability (NCI-H1944; first compound 0.8 µM): 0.926
relative viability (NCI-H1944; first compound 2.53 µM): 1.03
relative viability (NCI-H1944; first compound 8 µM): 0.995
relative viability (BEN; first compound 0.08 µM): 0.0678
relative viability (BEN; first compound 0.253 µM): 0.06
relative viability (BEN; first compound 0.8 µM): 0.0809
relative viability (BEN; first compound 2.53 µM): 0.0665
relative viability (BEN; first compound 8 µM): 0.0584
relative viability (LCLC-97TM1; first compound 0.08 µM): 0.527
relative viability (LCLC-97TM1; first compound 0.253 µM): 0.489
relative viability (LCLC-97TM1; first compound 0.8 µM): 0.215
relative viability (LCLC-97TM1; first compound 2.53 µM): 0.415
relative viability (LCLC-97TM1; first compound 8 µM): 0.402
